Article PMC3207901, “Nodulin 41, a novel late nodulin of common bean with peptidase activity” (BMC Plant Biology, 2011)
Where a SMILES comes first, the peptide text is derived from it. [ ]: non-standard residue; d: D form. The star is where a group is joined. Sta = CC(C)C[C@H](N)[C@@H](O)CC(=O)O; Isovaleryl = CC(C)CC(=O)*

Biological target: T1, PvNod41 (nodulin 41) (Phaseolus vulgaris, UniProt G1FTR5)
T1 construct: gene Nod41; native mature enzyme purified from 21 dpi root nodules; 437-residue precursor, 22-residue putative signal peptide and 50-residue prosegment removed; single chain, 41 kDa on SDS-PAGE
T1 sequence (G1FTR5 73-437): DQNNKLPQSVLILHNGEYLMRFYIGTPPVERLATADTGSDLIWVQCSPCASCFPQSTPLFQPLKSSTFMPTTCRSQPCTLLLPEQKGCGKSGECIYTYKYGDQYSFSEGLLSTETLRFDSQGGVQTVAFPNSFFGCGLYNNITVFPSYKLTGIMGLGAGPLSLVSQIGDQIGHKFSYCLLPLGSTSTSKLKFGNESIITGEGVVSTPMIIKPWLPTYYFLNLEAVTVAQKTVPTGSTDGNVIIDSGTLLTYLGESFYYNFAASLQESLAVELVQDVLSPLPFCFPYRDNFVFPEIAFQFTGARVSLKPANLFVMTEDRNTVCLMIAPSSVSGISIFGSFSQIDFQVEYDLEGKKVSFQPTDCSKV
Test: casein degradation, SDS-PAGE densitometry
Format: biochemical
Conditions: 2 µM, casein substrate, 50 mM sodium citrate, pH 4.5, 37°C, 15 min preincubation
From the text: casein degradation, SDS-PAGE densitometry on PvNod41 (nodulin 41)

% of residual activity (n = 3): 55 (± 5) %
SMILES: CC(C)CC(=O)N[C@H](C(=O)N[C@H](C(=O)N[C@@H](CC(C)C)[C@@H](O)CC(=O)N[C@@H](C)C(=O)N[C@@H](CC(C)C)[C@@H](O)CC(=O)O)C(C)C)C(C)C [Pepstatin A] (Isovaleryl-VV[Sta]A[Sta]-OH)
